Assay results from patent US12590062B2, “PD-1/PD-L1 inhibitors” (Gilead Sciences, Inc., priority 2017, dated 2026).

These molecules were tested against T1, PD-1/PD-L1 interaction (Homo sapiens, UniProt Q9NZQ7) (assay: PD-1/PD-L1 NFAT reporter co-culture assay). Conditions: Jurkat PD-1 NFAT-luciferase cells co-cultured with aAPC-PD-L1 CHO cells, 6 hrs at 37° C.; read-out: EC50 NFAT Luciferase.
T1 construct: expressed in transfected cells; host or cells: CHO cells (aAPC-PD-L1) co-cultured with Jurkat cells overexpressing PD-1 and an NFAT-luciferase reporter
T1 sequence (Q9NZQ7 19-290): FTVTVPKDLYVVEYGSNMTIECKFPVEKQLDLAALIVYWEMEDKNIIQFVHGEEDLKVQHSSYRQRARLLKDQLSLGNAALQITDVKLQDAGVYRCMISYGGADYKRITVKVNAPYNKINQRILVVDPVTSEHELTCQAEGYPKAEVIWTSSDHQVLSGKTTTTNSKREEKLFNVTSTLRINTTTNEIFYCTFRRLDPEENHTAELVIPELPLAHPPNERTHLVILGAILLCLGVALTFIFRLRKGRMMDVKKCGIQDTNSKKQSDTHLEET
Format: cell-based
Description: PD-1/PD-L1 NEAT Reporter Assay:
Compounds were tested in afunctional co-culture reporter assay in which TCR-mediated NFAT activity is inhibited by the engagement of PD-1 with PD-L1. […] CHO cells expressing surface-bound anti-CD3 antibodies and PD-L1 (artificial antigen presenting cells, aAPC-PD-L1) were first seeded overnight. Jurkat cells overexpressing PD-1 and expressing a luciferase construct under NFAT control are diluted in RPMI assay medium (RPMI 1640 with 2% FBS), mixed with compounds, and immediately seeded on the monolayer of aAPC-PD-L1. The co-culture is then incubated for 6 hrs at 37° C. Luciferase activity is assessed by adding the ONE-Glo reagent and measuring luminescence with a plate reader. EC50 values are calculated from the fit of the dose-response curves to a four-parameter equation (Table 3).

| SMILES | EC50 [nM] |
| --- | --- |
| CNC(=O)C1CN(Cc2cc(Br)c(OCc3cccc(-c4cccc(COc5nc(OC)c(CN6CC(C(=O)NC)C6)cc5Br)c4C)c3C)nc2OC)C1 [Example 256, 1,1′-(((((2,2′-dimethyl-[1,1′-biphenyl]-3,3′-diyl)bis(methylene))bis(oxy))bis(5-bromo-2-methoxypyridine-6,3-diyl))bis(methylene))bis(N-methylazetidine-3-carboxamide)] | 758 |
| CNC(=O)[C@H](C)NCc1cc(Cl)c(OCc2cccc(-c3cccc(COc4nc(OC)c(CN[C@@H](C)C(=O)NC)cc4Cl)c3C)c2C)nc1OC [Example 88, (2S,2′S)-2,2′-((((((2,2′-dimethyl-[1,1′-biphenyl]-3,3′-diyl)bis(methylene))bis(oxy))bis(5-chloro-2-methoxypyridine-6,3-diyl))bis(methylene))bis(azanediyl))bis(N-methylpropanamide)] | 4150 |
| COC(=O)[C@H](C)NCc1cc(Cl)c(OCc2cccc(-c3cccc(COc4nc(OC)c(CN[C@@H](C)C(=O)OC)cc4Cl)c3C)c2C)nc1OC [Example 100, Dimethyl 2,2′-((((((2,2′-dimethyl-[1,1′-biphenyl]-3,3′-diyl)bis(methylene))bis(oxy))bis(5-chloro-2-methoxypyridine-6,3-diyl))bis(methylene))bis(azanediyl))(2S,2′S)-dipropionate] | 482 |
| COc1nc(OCc2cccc(-c3cccc(COc4nc(OC)c(CNC56CC(C(=O)O)(C5)C6)cc4Cl)c3C)c2C)c(Cl)cc1CNC12CC(C(=O)O)(C1)C2 [Example 85, 3,3′-((((((2,2′-dimethyl-[1,1′-biphenyl]-3,3′-diyl)bis(methylene))bis(oxy))bis(5-chloro-2-methoxypyridine-6,3-diyl))bis(methylene))bis(azanediyl))bis(bicyclo[1.1.1]pentane-1-carboxylic acid)] | 9770 |
| COc1nc(OCc2cccc(-c3cccc(COc4nc(OC)c(CNCC(=O)NS(=O)(=O)N(C)C)cc4Cl)c3C)c2C)c(Cl)cc1CNCC(=O)NS(=O)(=O)N(C)C [Example 174, 2,2′-((((((2,2′-dimethyl-[1,1′-biphenyl]-3,3′-diyl)bis(methylene))bis(oxy))bis(5-chloro-2-methoxypyridine-6,3-diyl))bis(methylene))bis(azanediyl))bis(N-(N,N-dimethylsulfamoyl)acetamide)] | ≥ 50000 |
| COc1nc(OCc2cccc(-c3cccc(COc4nc(OC)c(C(CC(=O)O)N(C)C)cc4Cl)c3C)c2C)c(Cl)cc1C(CC(=O)O)N(C)C (mixture of isomers) [Example 236, 3,3′-((((2,2′-dimethyl-[1,1′-biphenyl]-3,3′-diyl)bis(methylene))bis(oxy))bis(5-chloro-2-methoxypyridine-6,3-diyl))bis(3-(dimethylamino)propanoic acid)] | 5030 |
| COc1nc(OCc2cccc(-c3cccc(COc4nc(OC)c(CNC[C@@H](O)CC(=O)O)cc4Br)c3Cl)c2Cl)c(Br)cc1CNC[C@@H](O)CC(=O)O [Example 189, (3S,3′S)-4,4′-((((((2,2′-Dichloro-[1,1′-biphenyl]-3,3′-diyl)bis(methylene))bis(oxy))bis(5-bromo-2-methoxypyridine-6,3-diyl))bis(methylene))bis(azanediyl))bis(3-hydroxybutanoic acid)] | 106 |

Further lines, results first:

| EC50 [nM] | SMILES |
| --- | --- |
| 722 | Cc1c(COc2cc(OCc3cncc(C#N)c3)c(CN3CCCC[C@H]3C(=O)O)cc2Cl)cccc1-c1cccc(COc2cc(OCc3cncc(C#N)c3)c(CN3CCCC[C@H]3C(=O)O)cc2Cl)c1C [Example 53, (2S,2′S)-1,1′-(((((2,2′-dimethyl-[1,1′-biphenyl]-3,3′-diyl)bis(methylene))bis(oxy))bis(5-chloro-2-((5-cyanopyridin-3-yl)methoxy)-4,1-phenylene))bis(methylene))bis(piperidine-2-carboxylic acid)] |
| 615 | COc1nc(OCc2cccc(-c3cccc(COc4nc(OC)c(CN[C@@H]5CCC[C@@H]5O)cc4Cl)c3C)c2C)c(Cl)cc1CN[C@@H]1CCC[C@@H]1O [Example 227, (1S,1′S,2R,2′R)-2,2′-((((((2,2′-dimethyl-[1,1′-biphenyl]-3,3′-diyl)bis(methylene))bis(oxy))bis(5-chloro-2-methoxypyridine-6,3-diyl))bis(methylene))bis(azanediyl))bis(cyclopentan-1-ol)] |
| 3350 | COc1nc(OCc2cccc(-c3cccc(COc4nc(OC)c(CN5CCC5C(N)=O)cc4Cl)c3C)c2C)c(Cl)cc1CN1CCC1C(N)=O (stereo not drawn) [Example 65, 1,1′-(((((2,2′-dimethyl-[1,1′-biphenyl]-3,3′-diyl)bis(methylene))bis(oxy))bis(5-chloro-2-methoxypyridine-6,3-diyl))bis(methylene))bis(azetidine-2-carboxamide)] |
| 844 | COc1nc(OCc2cccc(-c3cccc(COc4nc(OC)c(CN[C@H]5CCCC[C@H]5O)cc4Cl)c3C)c2C)c(Cl)cc1CN[C@H]1CCCC[C@H]1O [Example 228, (1R,1′R,2S,2′S)-2,2′-((((((2,2′-dimethyl-[1,1′-biphenyl]-3,3′-diyl)bis(methylene))bis(oxy))bis(5-chloro-2-methoxypyridine-6,3-diyl))his(methylene))his(azanediyl))his(cyclohexan-1-ol)] |
| 808 | COc1nc(OCc2cccc(-c3cccc(COc4nc(OC)c(CNCC5(O)CC5)cc4Cl)c3C)c2C)c(Cl)cc1CNCC1(O)CC1 [Example 175, 1,1′-(((((((2,2′-dimethyl-[1,1′-biphenyl]-3,3′-diyl)bis(methylene))bis(oxy))bis(5-chloro-2-methoxypyridine-6,3-diyl))bis(methylene))bis(azanediyl))bis(methylene))bis(cyclopropan-1-ol)] |
| 529 | Cc1c(COc2nc(OCc3cnn(C)c3)c(CNC[C@@H](O)CC(=O)O)cc2Cl)cccc1-c1cccc(COc2nc(OCc3cnn(C)c3)c(CNC[C@@H](O)CC(=O)O)cc2Cl)c1C [Example 136, (3S,3′S)-4,4′-((((((2,2′-dimethyl-[1,1′-biphenyl]-3,3′-diyl)bis(methylene))bis(oxy))bis(5-chloro-2-((1-methyl-1H-pyrazol-4-yl)methoxy)pyridine-6,3-diyl))bis(methylene))bis(azanediyl))bis(3-hydroxybutanoic acid)] |
| 98 | C[C@@](CO)(NCc1cc(Br)c(OCc2cccc(-c3cccc(COc4nc(OCc5cncc(C#N)c5)c(CN[C@@](C)(CO)C(=O)O)cc4Br)c3Cl)c2Cl)nc1OCc1cncc(C#N)c1)C(=O)O [Example 197, (2S,2′S)-2,2′-((((((2,2′-Dichloro-[1,1′-biphenyl]-3,3′-diyl)bis(methylene))bis(oxy))bis(5-bromo-2-((5-cyanopyridin-3-yl)methoxy)pyridine-6,3-diyl))bis(methylene))bis(azanediyl))bis(3-hydroxy-2-methylpropanoic acid)] |
| ≥ 50000 | COc1nc(OCc2cccc(-c3cccc(COc4nc(OC)c(C5COCCN5)cc4Br)c3C)c2C)c(Br)cc1C1COCCN1 (stereo not drawn) [Example 249, 3,3′-((((2,2′-dimethyl-[1,1′-biphenyl]-3,3′-diyl)bis(methylene))bis(oxy))bis(5-bromo-2-methoxypyridine-6,3-diyl))dimorpholine] |
